The target in data set [1] is T1, recombinant human Eg5 motor domain protein (Homo sapiens, UniProt P52732).
T1 construct: A plasmid expressing the motor domain of human Eg5 was constructed; made in house; host or cells: Escherichia coli BL21 (DE3)
T1 sequence (P52732 18-359 limits assumed): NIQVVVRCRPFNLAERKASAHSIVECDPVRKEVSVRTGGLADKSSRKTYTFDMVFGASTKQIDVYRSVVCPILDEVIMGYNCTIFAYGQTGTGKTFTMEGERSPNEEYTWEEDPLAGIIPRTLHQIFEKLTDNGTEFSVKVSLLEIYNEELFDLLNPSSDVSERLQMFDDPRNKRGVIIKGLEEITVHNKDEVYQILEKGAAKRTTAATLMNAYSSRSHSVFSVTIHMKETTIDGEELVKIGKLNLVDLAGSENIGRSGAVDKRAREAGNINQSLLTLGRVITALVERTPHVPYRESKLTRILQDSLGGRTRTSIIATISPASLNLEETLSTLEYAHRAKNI
As to the kind of experiment: Eg5 enzyme inhibition test (ATPase activity). Conditions: for IC50: 30° C., 30 minutes, absorbance at 360 nm, read-out: Inhibition ratios (IC50) on the ATPase activity of Eg5. The data set is classed as biochemical. The method, then:
A recombinant human Eg5 motor domain protein was prepared by referring to the literature [Biochemistry, Vol. 35, p. […] A plasmid expressing the motor domain of human Eg5 was constructed, and transformed into Escherichia coli BL21 (DE3). The transformant was cultured at 25° C., and when the OD600 reached 0.74, isopropyl-β-D-thiogalactoside was added at a final concentration of 0.5 mmol/L. The transformant was further cultured for 4 hours, and then the culture medium was centrifuged to collect the cells. The cells were suspended in a buffer and ultrasonicated, and then the sonicated solution was centrifuged to recover the supernatant. The supernatant was purified by cation exchange column chromatography to obtain a partially purified sample. Furthermore, the partially purified sample was purified by gel filtration column chromatography to obtain a finally purified sample.
Measurement of the ATPase activity of Eg5 was carried out by referring to the literatures [EMBO Journal, Vol. 13, p. […] Solution A was dispensed into each well of a 96-well plate as 45 μL portions. Solution B was used to serially dilute a test compound. The diluted test compound solutions in a volume of 30 μL were mixed with Solution A added beforehand in each well of the 96-well plate to start the enzymatic reaction. The enzymatic reaction was performed at 30° C. for 30 minutes. […] The relative activity was calculated to calculate IC50 value.

Data set [2] concerns human skin cancer SK-MEL-28 cells. Put plainly: Cell growth inhibition test against skin cancer cells (XTT). Type of data set: cell-based. Conditions: read-out: GI50 value (concentration of 50% growth inhibition). The method, then: (§1) A549 cells (1000 cells/well), SK-OV-3 cells (2000 cells/well), or HCT 116 cells (1000 cells/well) were seeded in each well of 96-well plates (Nunc, catalog No. 167008), and cultured overnight. Test compounds diluted stepwise were added, and the cells were further cultured for 72 hours (final volume: 100 μL/well). Fifty μL XTT labeling mixture of Cell Proliferation Kit II (XTT) (Roche Diagnostics, catalog No. 1465015) was added to each well, and the plates were incubated at 37° C. After 1 to 3 hours, absorbance at 490 nm (reference wavelength: 655 nm) was measured with a plate reader (Molecular Device, SpectraMax 340PC^384). Growth ratios of the cells in the wells treated with the test compounds were calculated based on the growth ratio of the cells in the control well treated with solvent (dimethyl sulfoxide (DMSO)) for 72 hours, which was defined as 100%.
(§2) As cancer cell lines, human pancreatic cancer MIA PaCa-2 cells (JCRB No. 0070), human cervical cancer HeLa cells (ATCC No. CCL-2), human breast cancer MDA-MB-468 cells (ATCC No. HTB-132), human prostate cancer DU 145 cells (ATCC No. HTB-81), human skin cancer SK-MEL-28 cells (ATCC No. HTB-72), human head and neck cancer KB cells (JCRB No. 9027), human renal cancer 786-0 cells (ATCC No. CRL-1932), and human liver cancer Hep G2 cells (ATCC No. HB-8065) were used. The cells were cultured at 37° C. in a 5% carbon dioxide atmosphere (except for the human breast cancer MDA-MB-468 cells, which were cultured under the condition at 37° C.) by using the mediums mentioned below, respectively.
(§3) In the same manner as that in Test Example 1, the cells were seeded (500 to 4000 cells/well, respectively) in each well of 96-well plates (Nunc, catalog No. 167008), and growth ratios of the cells treated with test compounds were calculated. The measurement of absorbance was performed at 1.5 to 3 hours after the addition of the XTT labeling mixture.
In general terms: Tetrazolium dyes change colour on reduction, which living cells bring about.

The test system of data set [3] is human head and neck cancer KB cells. As to the kind of experiment: Cell growth inhibition test against head and neck cancer cells (XTT). The conditions noted are these: read-out: GI50 value (concentration of 50% growth inhibition). The data set is classed as cell-based. The protocol:
as §1, §2, §3

For data set [4], the system named is human renal cancer 786-0 cells. As to the kind of experiment: Cell growth inhibition test against renal cancer cells (XTT). Type of data set: cell-based. Conditions: read-out: GI50 value (concentration of 50% growth inhibition). The protocol: as §1, §2, §3
Data set [5] relates to human breast cancer MDA-MB-468 cells. As to the kind of experiment: Cell growth inhibition test against breast cancer cells (XTT). The conditions noted are these: read-out: GI50 value (concentration of 50% growth inhibition). Type of data set: cell-based. The method, then:
as §1, §2, §3

Data set [6] relates to human colon cancer HCT 116 cells. As to the kind of experiment: Cell growth inhibition test against colon cancer cells (XTT). The data set is classed as cell-based. Conditions: read-out: GI50 value (concentration of 50% growth inhibition), 72 hours. The protocol: (§4) As cancer cell lines, human lung cancer A549 cells (ATCC No. CCL-185), human ovarian cancer SK-OV-3 cells (ATCC No. HTB-77), and human colon cancer HCT 116 cells (ATCC No. CCL-247) were used. For the culture of A549 cells, Nutrient Mixture F-12K medium (Invitrogen, catalog No. 21127-022) containing 10% fetal bovine serum (Invitrogen, catalog No. 10099-141), 100 units/mL penicillin (Invitrogen, catalog No. 15140-122), and 100 μg/mL streptomycin (Invitrogen, catalog No. 15140-122) was used. For the culture of SK-OV-3 cells and HCT 116 cells, McCoy's 5A medium (Invitrogen, catalog No. 16600-082) containing 10% fetal bovine serum (Invitrogen, catalog No. 10099-141), 100 units/mL penicillin (Invitrogen, catalog No. 15140-122), and 100 μg/mL streptomycin (Invitrogen, catalog No. 15140-122) was used. The cells were cultured at 37° C. in a 5% carbon dioxide atmosphere.
as §1

For data set [7], the system named is human ovarian cancer SK-OV-3 cells. As to the kind of experiment: Cell growth inhibition test against ovarian cancer cells (XTT). The data set is classed as cell-based. Conditions: read-out: GI50 value (concentration of 50% growth inhibition), 72 hours. The method, then:
as §4, §1

For data set [8], the system named is human pancreatic cancer MIA PaCa-2 cells. Put plainly: Cell growth inhibition test against pancreatic cancer cells (XTT). The data set is classed as cell-based. Conditions: read-out: GI50 value (concentration of 50% growth inhibition). The protocol: as §1, §2, §3
Data set [9] deals with human prostate cancer DU 145 cells. As to the kind of experiment: Cell growth inhibition test against prostate cancer cells (XTT). Type of data set: cell-based. The conditions noted are these: read-out: GI50 value (concentration of 50% growth inhibition). The method, then:
as §1, §2, §3

Data set [10] relates to human cervical cancer HeLa cells. As to the kind of experiment: Cell growth inhibition test against cervical cancer cells (XTT). Type of data set: cell-based. Conditions: read-out: GI50 value (concentration of 50% growth inhibition). The method, then:
as §1, §2, §3

Data set [11] relates to human lung cancer A549 cells. Put plainly: Cell growth inhibition test against lung cancer cells (XTT). Type of data set: cell-based. The conditions noted are these: read-out: GI50 value (concentration of 50% growth inhibition), 72 hours. The protocol:
as §4, §1

Data set [12] concerns human liver cancer Hep G2 cells. Put plainly: Cell growth inhibition test against liver cancer cells (XTT). Type of data set: cell-based. The conditions noted are these: HepG2, read-out: GI50 value (concentration of 50% growth inhibition). The method, then: as §1, §2, §3

Nine compounds from patent US20080194653A1, “Therapeutic Agent For Solid Tumor” (KYOWA HAKKO KOGYO CO., LTD., priority 2005, published 2008) can be followed below.

Structures can show the parent of a compound that is named as a salt. Bounds are passed on as bounds.

What is called melting point is the temperature, or range, at which the solid turns liquid.

Consider `CCNCCS(=O)(=O)NCCC1(c2ccccc2)SC(NC(=O)C(C)(C)C)=NN1C(=O)C(C)(C)C` (racemic) [Compound 14, N-{4-(2,2-Dimethylpropionyl)-5-[2-(2-ethylaminoethanesulfonylamino)ethyl]-5-phenyl-4,5-dihydro-1,3,4-thiadiazol-2-yl}-2,2-dimethylpropanamide], for which, in data set [1], the “Inhibition of the ATPase activity of Eg5 (in words)” value (from here on “Inhibition”) is “inhibited the ATPase activity of Eg5 in a concentration-dependent manner”.

For `CC(=O)N1N=C(NC(=O)C(C)(C)C)SC1(CCNS(C)(=O)=O)c1ccccc1` (single isomer, unassigned; (-)) [Compound f, (−)-N-[4-Acetyl-5-(2-methanesulfonylaminoethyl)-5-phenyl-4,5-dihydro-1,3,4-thiadiazol-2-yl]-2,2-dimethylpropanamide], the melting point was 187 to 190 °C.

Turning to `CCC(=O)N1N=C(NC(=O)C(C)(C)C)SC1(CCNS(C)(=O)=O)c1ccccc1` (single isomer, unassigned; (-)) [Compound b, (−)-N-[5-(2-Methanesulfonylaminoethyl)-5-phenyl-4-propionyl-4,5-dihydro-1,3,4-thiadiazol-2-yl]-2,2-dimethylpropanamide], the GI50 in data set [2] is less than 10 µM; in [3] it was less than 10 µM; in data set [4], less than 10 µM; in [5], less than 10 µM; in data set [6] it was less than 0.1 µM; in data set [7], less than 10 µM. Also, the GI50 in [8], in data set [9], in data set [10] and in data set [11] was less than 10 µM in each case. Also, the “Inhibition” value in data set [1] is reported as “inhibited the ATPase activity of Eg5 in a concentration-dependent manner”. Moreover, in data set [1], the IC50 was less than 0.1 µM.

Consider `CC(=O)N1N=C(N2CCCC2=O)SC1(CCNS(C)(=O)=O)c1ccccc1` (stereo not drawn) [Compound g, N-{2-[3-Acetyl-5-(2-oxopyrrolidin-1-yl)-2-phenyl-2,3-dihydro-1,3,4-thiadiazol-2-yl]ethyl}methanesulfonamide], for which the melting point fell in the range of 137 to 140 °C.

`CC(C)(C)C(=O)NC1=NN(C(=O)C(C)(C)C)C(CN)(c2ccccc2)S1` (stereo not drawn) [Compound j, N-[5-Aminomethyl-4-(2,2-dimethylpropionyl)-5-phenyl-4,5-dihydro-1,3,4-thiadiazol-2-yl]-2,2-dimethylpropanamide]: the GI50 in [6] is less than 0.1 µM; in data set [7] it was less than 10 µM; in data set [11] it was less than 10 µM.

Consider `CCNCCS(=O)(=O)NCC1(c2ccccc2)SC(NC(=O)C(C)(C)C)=NN1C(=O)C(C)(C)C` (single isomer, unassigned; (-)) [Compound l, (−)-N-[4-(2,2-Dimethylpropionyl)-5-(2-ethylaminoethanesulfonylamino-methyl)-5-phenyl-4,5-dihydro-1,3,4-thiadiazol-2-yl]-2,2-dimethylpropanamide], for which the GI50 is less than 10 µM in [12]; less than 10 µM in data set [2]; less than 10 µM in [3]; less than 10 µM in data set [4]; less than 0.1 µM in [6]; less than 10 µM in data set [7]. The GI50 in [8], in data set [9], in [10] and in data set [11] was less than 10 µM throughout. Also, in data set [1], the “Inhibition” value is “inhibited the ATPase activity of Eg5 in a concentration-dependent manner”. Also, the IC50 in data set [1] is less than 0.1 µM.

In the case of `CC(=O)N1N=C(N2CCCCC2=O)SC1(CCNS(C)(=O)=O)c1ccccc1` (single isomer, unassigned; (-)) [Compound h, (−)-N-{2-[3-Acetyl-5-(2-oxopiperidino)-2-phenyl-2,3-dihydro-1,3,4-thiadiazol-2-yl]ethyl}methanesulfonamide], the melting point lay in the range of 169 to 171 °C. Further, in data set [2], the GI50 was less than 10 µM. Also, the GI50 in [3] was less than 10 µM. Further, in data set [4], the GI50 was less than 10 µM. Besides, the GI50 in data set [5] was less than 10 µM. Besides, the GI50 in data set [6] is less than 0.1 µM. Moreover, the GI50 in data set [7] was less than 10 µM. Moreover, in data set [8], the GI50 is less than 10 µM. Further, in data set [1], the “Inhibition” value is given as “inhibited the ATPase activity of Eg5 in a concentration-dependent manner” and the IC50 is less than 0.1 µM. Moreover, the GI50 in data set [9] is less than 10 µM. Moreover, the GI50 in [10] was less than 10 µM. Moreover, the GI50 in data set [11] was less than 10 µM.

Compound `CC(C)(C)C(=O)N1N=C(N2CCCC2=O)SC1(CCNS(C)(=O)=O)c1ccccc1` (single isomer, unassigned; (-)) [Compound c, (−)-N-{2-[3-(2,2-Dimethylpropionyl)-5-(2-oxopyrrolidin-1-yl)-2-phenyl-2,3-dihydro-1,3,4-thiadiazol-2-yl]ethyl}methanesulfonamide] yielded a melting point of 107 to 110 °C.

The compound `CC(C)(C)C(=O)NC1=NN(C(=O)C(C)(C)C)C(CN)(c2ccccc2)S1` (stereo not drawn) (as salt: hydrochloride) [Compound j, N-[5-Aminomethyl-4-(2,2-dimethylpropionyl)-5-phenyl-4,5-dihydro-1,3,4-thiadiazol-2-yl]-2,2-dimethylpropanamide] came in with a melting point of 175 to 182 °C.
